Reference: article PMC6429222, “The Oligomeric State of the Plasma Membrane H^+-ATPase from Kluyveromyces lactis” (Molecules, 2019)
Values joined by “and” are separate entries in the source; they are usually repeats but may differ in a detail not shown here. Identical values can stand only once.

T1: plasma membrane H^+-ATPase hexamer, aggregated (large MAS, Peak 1) (Kluyveromyces lactis, UniProt P49380)
T1 construct: gene PMA1; Superose 6 Peak 1, aggregated hexamers; monomer ~100 kDa; no tag
T1 sequence (P49380 1-899): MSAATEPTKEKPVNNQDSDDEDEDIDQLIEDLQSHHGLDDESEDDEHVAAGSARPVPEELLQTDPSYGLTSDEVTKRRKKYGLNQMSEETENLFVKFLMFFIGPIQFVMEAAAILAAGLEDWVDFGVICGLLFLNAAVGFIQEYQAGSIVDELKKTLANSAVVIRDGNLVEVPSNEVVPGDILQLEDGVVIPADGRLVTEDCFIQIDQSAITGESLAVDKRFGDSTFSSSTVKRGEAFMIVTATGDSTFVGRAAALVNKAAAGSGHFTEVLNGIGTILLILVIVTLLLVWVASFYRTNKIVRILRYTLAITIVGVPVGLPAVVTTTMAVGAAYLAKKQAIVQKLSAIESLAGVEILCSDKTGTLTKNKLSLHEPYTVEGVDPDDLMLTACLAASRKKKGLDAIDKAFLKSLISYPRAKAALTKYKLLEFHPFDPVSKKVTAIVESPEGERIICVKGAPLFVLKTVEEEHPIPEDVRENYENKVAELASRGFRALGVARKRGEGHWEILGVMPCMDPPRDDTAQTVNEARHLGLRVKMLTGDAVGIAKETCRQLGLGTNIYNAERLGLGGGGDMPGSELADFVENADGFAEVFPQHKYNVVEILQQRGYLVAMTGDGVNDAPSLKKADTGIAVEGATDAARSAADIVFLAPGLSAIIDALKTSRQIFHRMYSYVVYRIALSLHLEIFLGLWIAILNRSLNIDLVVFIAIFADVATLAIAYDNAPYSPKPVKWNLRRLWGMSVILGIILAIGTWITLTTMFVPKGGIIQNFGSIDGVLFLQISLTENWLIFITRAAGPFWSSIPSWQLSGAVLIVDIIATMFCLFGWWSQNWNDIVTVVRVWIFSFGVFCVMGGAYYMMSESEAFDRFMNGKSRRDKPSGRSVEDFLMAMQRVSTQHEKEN

T2: plasma membrane H^+-ATPase hexamer, free (small MAS, Peak 2) (Kluyveromyces lactis, UniProt P49380)
T2 construct: gene PMA1; Superose 6 Peak 2, mainly free hexamers with minor monomer, dimer, tetramer; monomer ~100 kDa; no tag
T2 sequence (P49380 1-899): T1 sequence (P49380 1-899)

B1: plasma membrane H^+-ATPase hexamer, aggregated (large MAS, Peak 1) (Kluyveromyces lactis NRRL Y-1140) (protein)
chain: T1 sequence (P49380 1-899)
notes: Superose 6 Peak 1, aggregated hexamers; monomer ~100 kDa; no tag
B2: plasma membrane H^+-ATPase from Kluyveromyces lactis (enzyme, UniProt P49380 1-899, looked up)
chain: T1 sequence (P49380 1-899)
notes: plasma membrane H^+-ATPase (Pma1) of Kluyveromyces lactis, endogenous enzyme; monomer band of ~100 kDa on SDS-PAGE; also called Pma1; H^+-ATPase hexamer; source: also in isolated plasma membranes treated with DDM
B3: plasma membrane H^+-ATPase hexamer, free (small MAS, Peak 2) (Kluyveromyces lactis NRRL Y-1140) (protein)
chain: T1 sequence (P49380 1-899)
notes: Superose 6 Peak 2, mainly free hexamers with minor monomer, dimer, tetramer; monomer ~100 kDa; no tag

Assays:
[1] = molecular target: T1, plasma membrane H^+-ATPase hexamer, aggregated (large MAS, Peak 1); experiment: intrinsic Trp fluorescence quenching titration, Hill-type fit; assay type: binding
[2] = molecular target: T2, plasma membrane H^+-ATPase hexamer, free (small MAS, Peak 2); experiment: as above; assay type: binding
[3] = substrate: Nc1ncnc2c1ncn2[C@@H]1O[C@H](COP(=O)(O)OP(=O)(O)OP(=O)(O)O)[C@@H](O)[C@H]1O; experiment: purified protein; assay type: biochemical, Kluyveromyces lactis; conditions: 25 °C, cooperative
[4] = molecular target: the molecule itself; experiment: native gel or EMSA; BN-PAGE of SEC Peak 2 fractions (33-37); 4-15% gradient gel with 0.1 M trehalose; sample buffer 25 mM imidazole, 0.3 M trehalose, 0.25% DDM, 0.025% Coomassie blue, pH 7.0; 4 °C; silver stain
[5] = molecular target: the molecule itself; experiment: native gel or EMSA; BN-PAGE of SEC Peak 1 fractions (23-26); 4-15% gradient gel with 0.1 M trehalose; sample buffer 25 mM imidazole, 0.3 M trehalose, 0.25% DDM, 0.025% Coomassie blue, pH 7.0; 4 °C; silver stain

Molecule	Kd [1] [µM]	Kd [2] [µM]	further results
Nc1ncnc2c1ncn2[C@@H]1O[C@H](COP(=O)(O)OP(=O)(O)CP(=O)(O)O)[C@@H](O)[C@H]1O [AMP-PCP]	73.3 ± 5.8	106 ± 12.6	–
Nc1ncnc2c1ncn2[C@@H]1O[C@H](COP(=O)(O)OP(=O)(O)O)[C@@H](O)[C@H]1O [ADP]	136 ± 7.8	190 ± 13.9	–
B1	–	–	K0.5 ([3]; Hill n = 1.98 ± 0.21): 329 ± 19 µM
B2	–	–	stoichiometry N [4]: 2 and 4; stoichiometry N [5]: 6
B3	–	–	K0.5 ([3]; Hill n = 1.82 ± 0.22): 364 ± 28 µM
